# In patent publication US20220177877A1, “HIGHLY MULTIPLEXED BASE EDITING” (President and Fellows of Harvard College, priority 2019, published 2022):
# Legend:
# LINE-1 [1] = assay: FACS single cell direct NGS of targeted deamination, HEK 293T; type: cell-based, human; settings: for Mean target deamination % / Percent of cells with targeted deamination / Number of cells with targeted deamination: HEK 293T; for Mean target deamination % / Percent of cells with targeted deamination: Day 2; for Number of cells with targeted deamination: Day 2, 96 analyzed cells
# Protocol: To quantify early genetic editing in cells transfected with Cas9/BE and gRNA expression plasmids, single cells were sorted and prepared as follows. Two days post-transfection, single cells were FACS-sorted into 96-well PCR plates containing 10 μL of QUICKEXTRACT™ DNA Extraction Solution (Epicentre Cat. #QE09050) per well and genomic DNA (gDNA) was extracted using the manufacturer's protocol. Briefly, the sorted plates were sealed, vortexed and heated at 65° C. for 6 minutes then 98° C. for 2 minutes. The NGS library was prepared as described later below.
# (§1) Library preparation was conducted as previously described^5.
# LINE-1 [2] = tested on: LINE-1
# Protocol: (§2) Single cells were FACS-sorted into flat bottom 96-well plates containing 100 μL of DMEM with 10% FBS and 1% Penicillin/Streptomycin per well. Sorted plates were incubated for ˜14 days until well-characterized colonies were visible, with periodic media changes performed as necessary. To extract gDNA, the cells were first detached using 30 μL TRYPLE™ Express (Thermofisher Cat. #12604021) and neutralized with 30 μL growth media. Then, 4 μL of the resulting cell suspension was transferred to 10 μL of QE. Genomic DNA was extracted according to manufacturer's protocol, as described previously.
# (§3) Library preparation was conducted as previously described^5. Briefly, genomic DNA was amplified using locus-specific primers attached to part of the Illumina adapter sequence. A second round of PCR included the index sequence and the full Illumina adapter. All PCRs were carried out using KAPA HiFi HotStart ReadyMix (KAPA Biosystems KK2602) according to the manufacturer's thermocycler conditions. Libraries were purified using gel extraction (Qiagen Cat. #28706), quantified using Nanodrop and pooled together for deep sequencing on the MiSeq using 150 paired end (PE) reads.
# (§4) All paired end reads were aligned to the reference genome using bowtie2, and the resulting alignment files were converted to bam, sorted, indexed, and variant called using samtools^7. All SNV data within a 30 bp window from the 5′ start of the gRNA proceeding through the PAM and extending an additional seven bp's (for a 20 bp gRNA) are reported to analyze the editing window and purity of editing.
# LINE-1 [3] = assay: Single cell clonal isolation and sequence verification of live edited HEK 293T clones; settings: for Mean target deamination % / Number of cells with targeted deamination / Percent of cells with targeted deamination: HEK 293T, Day 14; for non-specific nucleotide conversions in gRNA and PAM: most highly edited clone versus parental 293T control
# Protocol: as §2, §3, §4
# LINE-1 [4] = assay: Line-1 subfamily analysis and matches to HL1gR4 (HL1gR4 PCR products); parameters: species or system human; settings: for Reads: Total Reads 35520
# LINE-1 [5] = assay: NGS base editing deamination analysis, bulk transfected HEK 293T; type: cell-based, human; settings: for gRNAs with above control levels of base editing in genomic DNA: HEK 293T, LINE-1 gRNAs
# Protocol: as §1
# [6] = HL1gR6, 3 days after transfection
# [7] = 293T, HL1gR4, two days post-transfection
# Protocol for single-locus targets: HEK 293T cells were obtained from ATCC with verification of cell line identification and mycoplasma negative results. They were expanded using 10% fetal bovine serum (FBS) in high-glucose DMEM with glutamax passaging at a typical rate of 1:100 and maintained at 37° C. with 5% CO2. Transfection was conducted using Lipofectamine 2000 (ThermoFisher Catalogue #11668019) using the protocol recommended by the manufacturer with slight modifications outlined below. 24 hours before transfection ˜1.0×10^5 cells were seeded per well in a 12-well plate along with 1 mL of media. A total of 2 μg of DNA and 2 μL of Lipofectamine 2000 were used per well. For Cas9 plasmids, the DNA content per well was 1 μg of pCas9_GFP mixed with 1 μg of gRNA-expressing plasmid. For BE plasmids, 1.5 μg of BE was mixed with 0.5 μg of gRNA plasmid. In the dBE vs nBE comparison used to generate FIGS. 4A-4C, Pifithrin-α (10 ng/μ1) from Sigma-Aldrich P4359 (source #063M4741V, Batch #0000003019) was added to the media 30 minutes before transfection and maintained in the first day media change.
# Raw Illumina sequencing data was demultiplexed using bcl2fastq. All paired end reads were aligned to the reference genome using bowtie2^49 and the resulting alignment files were parsed for their cigar string to determine the position and size of all indels within each read using a custom perl script (https://github.com/CRISPRengineer/mutation_indel). All indels that were sequenced in both the forward and reverse reads were summed across all reads and reported for each sample along with the total number of reads. Indels within a 30 bp window from the 5′ start of the gRNA proceeding through the PAM and extending an additional seven bp's (for a 20 bp gRNA) were counted and summed for each sample.
# as §4
substance,measurement,setting,value
"dCBE4-gam: nick-less dCas9 cytidine base editor with mu-gam (H840A), SEQ ID NO: 108",mean target nucleotide deamination frequency compared to nBE equivalents,"LINE-1 [1]; 293T, HL1gR4, 2 days after transfection",significant reductions
same,Mean target deamination %,LINE-1 [1],4.43%
same,Percent of cells with targeted deamination,LINE-1 [1],41.7%
same,Number of cells with targeted deamination,LINE-1 [1],40
same,Number of analyzed cells,LINE-1 [2],29
same,indel activity,single-locus targets,reduced to background levels
same,total number of chromosomal aberrations of top edited clones,HEK 293T,not significantly different than control groups
same,Mean target deamination %,LINE-1 [3],3.05%
same,Number of cells with targeted deamination,LINE-1 [3],20
same,Percent of cells with targeted deamination,LINE-1 [3],69%
same,increase in mean editing frequency among surviving live clones compared to nicking counterpart,LINE-1 [3]; day 14,2.38 fold
same,non-specific nucleotide conversions in gRNA and PAM,LINE-1 [3],some non-specific nucleotide conversions
"HL1gR4: SpCas9 gRNA targeting LINE-1 ORF2, SEQ ID NO: 54 (guide ATTCTACCAGAGGTACAAGG; chemistry not given here)",Percentage of reads,LINE-1 [4]; # of Mismatches 0,64.1%
same,Reads,LINE-1 [4]; # of Mismatches 0,22780
same,Percentage of reads,LINE-1 [4]; # of Mismatches 1,18.4%
same,Reads,LINE-1 [4]; # of Mismatches 1,6546
same,Percentage of reads,LINE-1 [4]; # of Mismatches 2,3.2%
same,Reads,LINE-1 [4]; # of Mismatches 2,1131
same,Percentage of reads,LINE-1 [4]; # of Mismatches 3,0.4%
same,Reads,LINE-1 [4]; # of Mismatches 3,148
same,Percentage of reads,LINE-1 [4]; # of Mismatches 4,0.2%
same,Reads,LINE-1 [4]; # of Mismatches 4,63
same,Percentage of reads,LINE-1 [4]; # of Mismatches 5,0.0%
same,Reads,LINE-1 [4]; # of Mismatches 5,2
same,Percentage of reads,LINE-1 [4]; # of Mismatches 6,0.1%
same,Reads,LINE-1 [4]; # of Mismatches 6,26
same,Percentage of reads,LINE-1 [4]; # of Mismatches 7,0.0%
same,Reads,LINE-1 [4]; # of Mismatches 7,1
same,Percentage of reads,LINE-1 [4]; # of Mismatches 8,0.0%
same,Reads,LINE-1 [4]; # of Mismatches 8,1
same,Percentage of reads,LINE-1 [4]; # of Mismatches 9,0.0%
same,Reads,LINE-1 [4]; # of Mismatches 9,1
same,Percentage of reads,LINE-1 [4]; # of Mismatches >9,13%
same,Reads,LINE-1 [4]; # of Mismatches >9,4600
"dCBE4: nick-less dCas9 cytidine base editor (H840A), SEQ ID NO: 107",indel activity,single-locus targets,reduced to background levels
same,improvement in editing efficiency over CBE2,"single-locus targets; 293T cells, day five",2.38 fold
same,reduction in efficiency compared to nicking counterparts,"single-locus targets; 293T cells, day five",34.7%
"nABE: ecTadA(wt)-linker(32aa)-ecTadA*(7.10)-linker(32aa)-nCas9-NLS, SEQ ID NO: 15, Addgene #102919",gRNAs with above control levels of base editing in genomic DNA,LINE-1 [5],4 out of 5
same,editing efficiency,LINE-1 [5]; [6],4.94%
same,loci edited,LINE-1 [5]; [6],~1290 loci
same,Mean target deamination %,LINE-1 [1],5.32%
same,Percent of cells with targeted deamination,LINE-1 [1],60.4%
same,Number of cells with targeted deamination,LINE-1 [1],58
same,decrease in editing efficiency at the early timepoint,LINE-1 [1]; nABE 5.32% versus dABE 1.45%,3.67 fold
same,Number of analyzed cells,LINE-1 [2],16
same,total number of chromosomal aberrations of top edited clones,HEK 293T,not significantly different than control groups
same,Mean target deamination %,LINE-1 [3],0.88%
same,Number of cells with targeted deamination,LINE-1 [3],4
same,Percent of cells with targeted deamination,LINE-1 [3],25%
same,non-specific nucleotide conversions in gRNA and PAM,LINE-1 [3],not
"nCBE3: rAPOBEC1-XTEN-nCas9-UGI-NLS, SEQ ID NO: 10, Addgene #73021 [reference compound]",mean deamination frequency compared with nCBE4-gam,LINE-1 [1]; [7],significantly higher
same,fate of edited cell lines before day 30,"LINE-1 [3]; 293T, HL1gR4",died
"nCBE4-gam: Cas9 nickase-cytidine deaminase-gam, SEQ ID NO: 12, Addgene #100806 [reference compound]",gRNAs with above control levels of base editing in genomic DNA,LINE-1 [5],4 out of 5
same,deamination in the most highly edited single cell,LINE-1 [1]; [7],up to 54.9%
same,estimated loci edited in the most highly edited single cell,LINE-1 [1]; [7],"14,300 loci"
same,Mean target deamination %,LINE-1 [1],6.08%
same,Percent of cells with targeted deamination,LINE-1 [1],65.6%
same,Number of cells with targeted deamination,LINE-1 [1],63
same,C→T deamination in cells after a second round of editing of cloneK,LINE-1 [1]; day 2,up to 36.26%
same,Number of analyzed cells,LINE-1 [2],12
same,total number of chromosomal aberrations of top edited clones,HEK 293T,not significantly different than control groups
same,deamination frequencies of surviving cell lines,"LINE-1 [3]; 293T, HL1gR4, day 30",≤ 1.37 % of LINE-1
same,estimated sites edited in surviving cell lines,"LINE-1 [3]; 293T, HL1gR4, day 30",~356 sites
same,Mean target deamination %,LINE-1 [3],1.28%
same,Number of cells with targeted deamination,LINE-1 [3],4
same,Percent of cells with targeted deamination,LINE-1 [3],33%
same,non-specific nucleotide conversions in gRNA and PAM,LINE-1 [3],some non-specific nucleotide conversions
